Measurements as given in patent US10660884B2, “Phosphonate-chloroquine conjugates and methods using same” (University of Rochester, priority 2015, dated 2020).

Key:
[1] = system: WT mouse bone marrow (BM) cells (OC precursors); assay: Osteoclastogenesis assay: OC formation on plastic, TRAP staining; type: cell-based; conditions: for Inhibition of osteoclast activity by osteoclast staining: WT mouse BM cells, images FIGS. 11-12
bone resorption = conditions: cited from earlier work; for Prevention of bone resorption in mice: literature report
TRAF3 = assay: Western blot of RANKL-induced TRAF3 degradation; type: cell-based, mouse; conditions: 3 μM, 8 hrs, Western blotting
Description: WT mouse BM cells, cultured with M-CSF as in FIG. 6, were treated with vehicle, BTCQ, CQ or NC-BTCQ (3 μM) for 8 hrs. Cell lysates were used to test TRAF3 and actin protein levels by Western blotting.
Cultured cells were lysed with M-Per mammalian protein extraction reagent. 10-20 μg protein were loaded onto 10% SDS-PAGE gels, transferred onto polyvinylidene difluoride membranes, incubated with primary and secondary Abs, followed by exposure to ECL substrate. Signals were analyzed using a Bio-Rad imaging system.

[2] = literature; cited from earlier work

| SMILES | Inhibition of osteoclast activity by osteoclast staining [1] | OC formation (OC numbers after TRAP staining) ([1]; BM cells on plastic, M-CSF 2 days, then RANKL plus compound 3 more days) | Concentration at which OC formation was inhibited (BTCQ more effective than CQ) ([1]; on plastic, FIG. 2A) [µM] | Dose that effectively blocks PTH-induced marrow fibrosis (bone resorption; Xiu Y et al., 2014) [mg/kg] | Prevention of bone resorption in mice (bone resorption) | Prevention of RANKL-induced degradation of TRAF3 (TRAF3) | Blindness, share of patients [2] |
| --- | --- | --- | --- | --- | --- | --- | --- |
| CCN(CC)CCCC(C)N(C(=O)OCCCCCCCC(=O)NC(P(=O)(O)O)P(=O)(O)O)c1ccnc2cc(Cl)ccc12 (racemic) [UR-11, rac-(13-(7-chloroquinolin-4-yl)-18-ethyl-14-methyl-3,12-dioxo-11-oxa-2,13,18-triazaicosane-1,1-diyl)diphosphonic acid] | more effective at inhibiting osteoclast activity than the non cleavable amide UR-12 | – | – | – | – | – | – |
| CCN(CC)CCCC(C)Nc1ccnc2cc(Cl)ccc12.O=P(O)(O)O.O=P(O)(O)O (stereo not shown) [CQ, 7-chloro-4-[[4-(diethylamino)-1-methylbutyl]amino] quinoline phosphate (1:2)] | more effective at inhibiting osteoclast activity than HCQ | inhibited OC formation | 3 | 50 | prevents bone resorption and osteoporosis | unlike CQ and BTCQ, NC-BTCQ does not prevent RANKL-induced degradation of TRAF3 | – |
| CCN(CCO)CCCC(C)Nc1ccnc2cc(Cl)ccc12 (stereo not shown) [HCQ, hydroxychloroquine] | CQ and BTCQ are more effective at inhibiting osteoclast activity than HCQ | – | – | – | does not prevent bone resorption in mice | – | 0.5-1% |
